pIC50, pKd: −log10 of the molar value.
What was measured:
Conditions in all cases: pH 8
[1] = biological target: T1, Chromobox protein homolog 7 (Homo sapiens, UniProt O95931); test: AlphaScreen Assay
T1 sequence (O95931 whole entry): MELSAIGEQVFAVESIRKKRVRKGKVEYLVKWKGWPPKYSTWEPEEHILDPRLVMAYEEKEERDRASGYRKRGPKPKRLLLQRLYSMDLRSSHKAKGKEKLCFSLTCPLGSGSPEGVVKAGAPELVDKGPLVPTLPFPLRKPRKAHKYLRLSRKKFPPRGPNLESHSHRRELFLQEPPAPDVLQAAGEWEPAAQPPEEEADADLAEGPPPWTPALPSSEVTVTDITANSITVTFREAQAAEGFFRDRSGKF
Method: (§1) In brief, compound plates (1 μL at 10 mM highest concentration; 3-fold, 10-point dilutions in DMSO) were diluted in 1X assay buffer (20 mM TRIS pH 8.0, 25 mM NaCl, 2 mM DTT and 0.05% Tween-20) to 1 mM using a Multimek robotic pipettor (Nanoscreen), and 1 μL was spotted into the wells of 384-well low-volume Proxiplates (PerkinElmer). To these plates was added 9 μL of protein−peptide mix in a 1X assay buffer by Multidrop (Thermo) to bring the final compound concentration to 100 μM, and this was incubated for 30 min at RT. Next, 2 μL of a 1:1 mixture of streptavidin-conjugate donor and nickel-chelate acceptor beads (45μg/mL in 1X assay buffer) were added, and the plates were allowed to incubate for an additional 30 min in the dark at RT. After incubation, the plates were read on an EnVision multilabel reader equipped with an HTS AlphaScreen laser (PerkinElmer).

[2] = biological target: T2, E3 ubiquitin-protein ligase UHRF1 (Homo sapiens, UniProt Q96T88); test: AlphaScreen Assay
T2 sequence (Q96T88 whole entry): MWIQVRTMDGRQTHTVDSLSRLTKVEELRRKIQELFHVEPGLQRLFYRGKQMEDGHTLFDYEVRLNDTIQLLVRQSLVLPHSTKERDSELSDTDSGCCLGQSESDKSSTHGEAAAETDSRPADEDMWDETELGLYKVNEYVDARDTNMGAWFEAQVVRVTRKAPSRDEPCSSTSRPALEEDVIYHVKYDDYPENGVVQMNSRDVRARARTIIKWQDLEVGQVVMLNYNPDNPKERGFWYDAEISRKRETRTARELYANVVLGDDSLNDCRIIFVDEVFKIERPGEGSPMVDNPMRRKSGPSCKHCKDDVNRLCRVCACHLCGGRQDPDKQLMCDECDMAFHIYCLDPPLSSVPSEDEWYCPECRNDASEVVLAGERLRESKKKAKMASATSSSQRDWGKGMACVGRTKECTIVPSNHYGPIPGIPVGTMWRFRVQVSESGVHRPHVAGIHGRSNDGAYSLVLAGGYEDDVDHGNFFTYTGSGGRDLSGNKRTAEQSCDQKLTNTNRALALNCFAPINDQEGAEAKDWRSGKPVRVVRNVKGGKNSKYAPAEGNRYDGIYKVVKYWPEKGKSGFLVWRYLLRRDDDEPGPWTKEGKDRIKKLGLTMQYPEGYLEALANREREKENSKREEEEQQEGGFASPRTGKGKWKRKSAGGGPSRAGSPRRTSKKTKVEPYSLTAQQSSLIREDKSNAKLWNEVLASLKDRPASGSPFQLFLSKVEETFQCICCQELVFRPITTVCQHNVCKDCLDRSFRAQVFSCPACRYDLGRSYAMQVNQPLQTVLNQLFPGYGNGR
Method: as §1

[3] = biological target: T3, Isoform 4 of Lethal(3)malignant brain tumor-like protein 1 (4) (Homo sapiens, UniProt Q9Y468); test: AlphaScreen Assay
T3 sequence (Q9Y468 whole entry): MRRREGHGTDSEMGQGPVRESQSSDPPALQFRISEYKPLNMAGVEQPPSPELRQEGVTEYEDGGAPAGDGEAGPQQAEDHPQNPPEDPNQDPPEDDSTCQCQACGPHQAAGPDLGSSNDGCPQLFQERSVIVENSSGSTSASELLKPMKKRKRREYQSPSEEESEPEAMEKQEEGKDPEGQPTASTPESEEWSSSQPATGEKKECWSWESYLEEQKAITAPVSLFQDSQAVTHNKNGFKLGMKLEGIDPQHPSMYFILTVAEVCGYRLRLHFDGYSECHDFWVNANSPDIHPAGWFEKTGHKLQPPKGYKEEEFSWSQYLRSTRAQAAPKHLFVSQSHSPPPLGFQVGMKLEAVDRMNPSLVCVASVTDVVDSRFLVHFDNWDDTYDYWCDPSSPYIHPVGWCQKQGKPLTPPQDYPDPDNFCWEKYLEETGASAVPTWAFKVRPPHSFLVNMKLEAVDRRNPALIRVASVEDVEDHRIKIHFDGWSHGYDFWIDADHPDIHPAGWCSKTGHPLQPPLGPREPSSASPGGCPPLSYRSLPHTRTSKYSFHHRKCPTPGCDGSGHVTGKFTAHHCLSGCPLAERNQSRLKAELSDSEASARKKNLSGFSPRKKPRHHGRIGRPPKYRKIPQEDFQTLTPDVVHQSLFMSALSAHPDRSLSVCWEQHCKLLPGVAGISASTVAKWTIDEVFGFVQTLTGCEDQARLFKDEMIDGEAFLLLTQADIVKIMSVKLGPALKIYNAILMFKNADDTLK
Method: as §1

[4] = biological target: Lysine-specific demethylase 5A (Homo sapiens, UniProt P29375); test: AlphaScreen Assay
Method: as §1

[5] = biological target: MBT domain-containing protein 1 (Homo sapiens, UniProt Q05BQ5); test: AlphaScreen Assay
Method: as §1

[6] = biological target: T4, PHD finger protein 1 (Homo sapiens, UniProt O43189); test: AlphaScreen Assay
T4 sequence (O43189 whole entry): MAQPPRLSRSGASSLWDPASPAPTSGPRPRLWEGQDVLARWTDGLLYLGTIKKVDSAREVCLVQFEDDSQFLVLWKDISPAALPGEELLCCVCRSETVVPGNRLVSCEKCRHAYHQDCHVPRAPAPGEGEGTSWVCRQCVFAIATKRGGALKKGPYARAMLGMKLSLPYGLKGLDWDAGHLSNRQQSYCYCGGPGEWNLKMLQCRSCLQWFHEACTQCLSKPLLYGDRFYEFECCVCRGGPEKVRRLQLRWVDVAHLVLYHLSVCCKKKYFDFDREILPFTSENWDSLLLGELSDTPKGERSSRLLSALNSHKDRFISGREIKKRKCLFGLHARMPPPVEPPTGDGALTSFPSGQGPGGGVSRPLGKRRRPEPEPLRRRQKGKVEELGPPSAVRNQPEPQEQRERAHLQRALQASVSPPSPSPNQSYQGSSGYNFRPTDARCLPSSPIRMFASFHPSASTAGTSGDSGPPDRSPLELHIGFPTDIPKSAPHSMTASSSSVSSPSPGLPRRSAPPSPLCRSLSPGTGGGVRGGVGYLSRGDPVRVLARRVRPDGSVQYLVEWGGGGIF
Method: as §1

[7] = biological target: PHD finger protein 19 (Homo sapiens, UniProt Q5T6S3); test: AlphaScreen Assay
Method: as §1

[8] = biological target: PHD finger protein 23 (Homo sapiens, UniProt Q9BUL5); test: AlphaScreen Assay
Method: as §1

[9] = biological target: T5, TP53-binding protein 1 (Homo sapiens, UniProt Q12888); test: AlphaScreen Assay
Method: as §1

[10] = biological target: T5, TP53-binding protein 1; test: ITC
Method: All ITC measurements were recorded at 25 °C with an AutoITC200 microcalorimeter (MicroCal Inc.). All protein and compound stock samples were in the target buffer (25 mM Tris-HCl, pH 8, 150 mM NaCl, and 2 mM β-mercaptoethanol), and then diluted in the same buffer to achieve the desired concentrations: 90 200 μM protein and 1 2 mM compound depending on the expected dissociation constant. The concentration of protein stock solutions were established using the Edelhoch method, whereas 10 mM compound stock solutions were prepared gravimetrically based on molecular weight. A typical experiment included a single 0.2 μL compound injection into a 200 μL cell filled with protein, followed by 25 subsequent 1.5 μL injections of compound. Injections were performed with a spacing of 180 seconds and a reference power of 8 μcal/sec.

PHD finger protein 23, sequence (Q9BUL5 whole entry): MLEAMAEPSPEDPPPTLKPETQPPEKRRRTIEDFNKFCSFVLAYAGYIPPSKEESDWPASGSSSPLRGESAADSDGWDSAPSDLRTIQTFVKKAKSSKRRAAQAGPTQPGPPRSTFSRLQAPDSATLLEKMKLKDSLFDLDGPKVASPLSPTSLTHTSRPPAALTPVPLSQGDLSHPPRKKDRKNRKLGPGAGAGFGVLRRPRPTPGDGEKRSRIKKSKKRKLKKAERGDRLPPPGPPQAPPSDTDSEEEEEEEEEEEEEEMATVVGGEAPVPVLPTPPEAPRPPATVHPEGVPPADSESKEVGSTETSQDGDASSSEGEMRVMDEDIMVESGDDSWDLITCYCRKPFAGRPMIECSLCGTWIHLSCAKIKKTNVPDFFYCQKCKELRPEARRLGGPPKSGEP
Lysine-specific demethylase 5A, sequence (P29375 whole entry): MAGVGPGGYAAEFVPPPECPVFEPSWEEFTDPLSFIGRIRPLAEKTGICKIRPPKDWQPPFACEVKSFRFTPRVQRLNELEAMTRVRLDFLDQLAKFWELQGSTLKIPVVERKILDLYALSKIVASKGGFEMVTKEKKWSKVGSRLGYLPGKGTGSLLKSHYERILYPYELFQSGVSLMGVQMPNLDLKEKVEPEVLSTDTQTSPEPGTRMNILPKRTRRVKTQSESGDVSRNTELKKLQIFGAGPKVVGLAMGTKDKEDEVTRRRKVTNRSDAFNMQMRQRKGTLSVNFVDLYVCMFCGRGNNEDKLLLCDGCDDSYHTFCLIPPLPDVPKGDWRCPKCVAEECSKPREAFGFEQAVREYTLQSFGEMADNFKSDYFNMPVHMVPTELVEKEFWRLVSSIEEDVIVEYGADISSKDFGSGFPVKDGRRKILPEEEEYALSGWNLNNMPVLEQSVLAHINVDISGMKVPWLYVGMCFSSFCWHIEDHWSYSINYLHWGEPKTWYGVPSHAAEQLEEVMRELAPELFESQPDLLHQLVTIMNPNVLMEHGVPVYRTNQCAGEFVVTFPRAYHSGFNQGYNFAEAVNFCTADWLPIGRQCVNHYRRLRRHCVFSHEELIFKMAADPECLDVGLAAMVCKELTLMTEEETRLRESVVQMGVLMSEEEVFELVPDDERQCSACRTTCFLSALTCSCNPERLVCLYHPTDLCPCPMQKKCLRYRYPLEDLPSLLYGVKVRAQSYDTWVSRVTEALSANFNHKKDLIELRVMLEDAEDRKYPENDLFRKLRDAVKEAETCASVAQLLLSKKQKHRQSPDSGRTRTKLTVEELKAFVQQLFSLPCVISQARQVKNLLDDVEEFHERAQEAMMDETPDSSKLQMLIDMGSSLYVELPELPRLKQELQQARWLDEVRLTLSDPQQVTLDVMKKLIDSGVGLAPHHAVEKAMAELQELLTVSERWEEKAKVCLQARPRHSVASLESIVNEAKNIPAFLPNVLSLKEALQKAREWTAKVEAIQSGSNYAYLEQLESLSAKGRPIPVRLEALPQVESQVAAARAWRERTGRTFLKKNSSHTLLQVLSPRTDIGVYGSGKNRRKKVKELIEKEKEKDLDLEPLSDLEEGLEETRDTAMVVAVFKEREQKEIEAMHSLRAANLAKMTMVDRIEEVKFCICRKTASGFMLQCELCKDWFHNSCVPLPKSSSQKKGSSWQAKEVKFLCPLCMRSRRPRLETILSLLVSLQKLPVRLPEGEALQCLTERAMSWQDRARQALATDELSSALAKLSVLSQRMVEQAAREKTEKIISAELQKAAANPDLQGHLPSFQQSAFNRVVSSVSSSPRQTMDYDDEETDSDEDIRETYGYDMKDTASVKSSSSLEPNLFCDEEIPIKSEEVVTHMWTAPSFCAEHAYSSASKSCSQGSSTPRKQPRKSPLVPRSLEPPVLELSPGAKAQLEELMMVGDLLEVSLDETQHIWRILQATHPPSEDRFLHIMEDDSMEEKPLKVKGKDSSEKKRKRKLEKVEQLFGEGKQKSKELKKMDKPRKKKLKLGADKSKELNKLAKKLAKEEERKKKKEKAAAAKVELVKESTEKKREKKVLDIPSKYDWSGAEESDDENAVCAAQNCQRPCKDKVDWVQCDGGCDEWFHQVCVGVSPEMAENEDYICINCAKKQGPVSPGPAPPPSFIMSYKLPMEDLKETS
T5 sequence (Q12888 whole entry): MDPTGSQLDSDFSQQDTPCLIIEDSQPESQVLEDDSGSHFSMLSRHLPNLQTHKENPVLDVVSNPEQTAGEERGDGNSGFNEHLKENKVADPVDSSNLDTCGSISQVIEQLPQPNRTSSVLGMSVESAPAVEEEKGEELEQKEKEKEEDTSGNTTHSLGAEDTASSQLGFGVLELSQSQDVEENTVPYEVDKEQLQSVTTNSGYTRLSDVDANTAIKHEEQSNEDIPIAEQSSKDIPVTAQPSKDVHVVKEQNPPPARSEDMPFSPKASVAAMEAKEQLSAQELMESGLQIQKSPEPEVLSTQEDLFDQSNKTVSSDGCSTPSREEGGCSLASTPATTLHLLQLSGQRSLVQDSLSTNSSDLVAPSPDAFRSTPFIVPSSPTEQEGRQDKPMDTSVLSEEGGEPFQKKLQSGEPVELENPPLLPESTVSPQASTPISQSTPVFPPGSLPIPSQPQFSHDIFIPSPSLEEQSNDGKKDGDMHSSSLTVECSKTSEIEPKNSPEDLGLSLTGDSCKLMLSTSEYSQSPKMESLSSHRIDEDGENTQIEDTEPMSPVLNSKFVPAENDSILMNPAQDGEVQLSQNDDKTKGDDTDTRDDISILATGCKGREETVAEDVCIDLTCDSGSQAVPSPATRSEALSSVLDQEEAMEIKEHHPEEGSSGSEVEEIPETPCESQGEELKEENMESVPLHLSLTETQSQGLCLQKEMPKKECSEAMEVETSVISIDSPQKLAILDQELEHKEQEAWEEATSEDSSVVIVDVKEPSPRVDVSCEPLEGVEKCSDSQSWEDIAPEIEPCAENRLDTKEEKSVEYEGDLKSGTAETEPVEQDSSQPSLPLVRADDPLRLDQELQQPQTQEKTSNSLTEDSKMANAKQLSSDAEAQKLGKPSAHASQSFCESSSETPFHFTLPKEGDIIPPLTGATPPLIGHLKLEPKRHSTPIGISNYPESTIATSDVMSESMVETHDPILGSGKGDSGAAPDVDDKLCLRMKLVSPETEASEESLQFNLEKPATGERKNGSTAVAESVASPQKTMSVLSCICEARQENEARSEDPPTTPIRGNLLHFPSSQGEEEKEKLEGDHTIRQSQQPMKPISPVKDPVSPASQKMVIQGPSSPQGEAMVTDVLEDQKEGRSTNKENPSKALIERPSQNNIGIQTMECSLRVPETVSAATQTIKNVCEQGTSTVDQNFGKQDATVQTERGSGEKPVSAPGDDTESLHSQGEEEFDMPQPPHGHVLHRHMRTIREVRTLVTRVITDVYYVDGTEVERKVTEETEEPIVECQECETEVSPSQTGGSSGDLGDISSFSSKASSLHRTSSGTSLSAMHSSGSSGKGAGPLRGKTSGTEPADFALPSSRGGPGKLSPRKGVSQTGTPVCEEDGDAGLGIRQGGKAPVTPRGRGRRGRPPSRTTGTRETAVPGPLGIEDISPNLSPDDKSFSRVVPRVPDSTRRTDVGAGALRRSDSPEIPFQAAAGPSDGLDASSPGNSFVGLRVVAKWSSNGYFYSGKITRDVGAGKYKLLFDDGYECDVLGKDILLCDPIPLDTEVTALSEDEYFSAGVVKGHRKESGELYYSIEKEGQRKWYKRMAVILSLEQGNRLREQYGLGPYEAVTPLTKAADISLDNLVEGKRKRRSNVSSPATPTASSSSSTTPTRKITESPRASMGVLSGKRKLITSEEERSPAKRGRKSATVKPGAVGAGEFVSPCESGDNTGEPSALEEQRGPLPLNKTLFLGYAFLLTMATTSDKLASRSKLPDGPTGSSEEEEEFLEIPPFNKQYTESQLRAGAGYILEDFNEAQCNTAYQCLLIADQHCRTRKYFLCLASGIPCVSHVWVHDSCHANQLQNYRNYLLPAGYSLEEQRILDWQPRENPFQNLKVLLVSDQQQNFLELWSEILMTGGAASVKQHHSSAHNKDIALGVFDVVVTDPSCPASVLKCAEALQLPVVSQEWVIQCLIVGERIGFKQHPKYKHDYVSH
MBT domain-containing protein 1, sequence (Q05BQ5 whole entry, the tested form may be a part): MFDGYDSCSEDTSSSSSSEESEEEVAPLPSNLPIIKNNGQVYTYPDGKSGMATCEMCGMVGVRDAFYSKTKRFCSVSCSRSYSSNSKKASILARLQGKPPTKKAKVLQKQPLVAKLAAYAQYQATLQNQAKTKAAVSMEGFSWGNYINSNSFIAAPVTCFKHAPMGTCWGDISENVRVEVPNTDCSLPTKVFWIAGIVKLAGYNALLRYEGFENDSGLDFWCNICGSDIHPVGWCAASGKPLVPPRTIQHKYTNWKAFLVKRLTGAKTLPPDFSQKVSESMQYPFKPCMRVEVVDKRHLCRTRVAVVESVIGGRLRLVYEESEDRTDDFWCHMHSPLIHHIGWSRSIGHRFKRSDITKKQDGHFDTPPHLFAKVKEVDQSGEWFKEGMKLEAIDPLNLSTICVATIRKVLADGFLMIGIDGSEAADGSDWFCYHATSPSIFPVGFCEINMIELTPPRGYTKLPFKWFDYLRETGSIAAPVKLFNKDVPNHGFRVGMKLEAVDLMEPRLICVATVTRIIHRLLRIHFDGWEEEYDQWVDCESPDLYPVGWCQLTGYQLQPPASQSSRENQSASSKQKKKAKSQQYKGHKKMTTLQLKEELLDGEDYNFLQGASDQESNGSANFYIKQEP

Row | Compound | pIC50 [1] | pIC50 [2] | pIC50 [3] | pIC50 [4] | pIC50 [5] | pIC50 [6] | pIC50 [7] | pIC50 [8] | pIC50 [9] | pKd [10]
1 | CC(C)(C)OCCCNC(=O)c1cccc(Br)c1 [3-Bromo-N-(3-(tert-butoxy)propyl)benzamide (5)] | < 4.00 | < 4.00 | < 4.00 | < 4.00 | < 4.00 | < 4.00 | < 4.00 | < 4.00 | < 4.00 | 
2 | CN(CCCNC(=O)c1cccc(Br)c1)C(C)(C)C [3-Bromo-N-(3-(tert-butyl(methyl)amino)propyl)benzamide (UNC2892, 4)] | < 3.30 | < 3.30 | < 3.30 | < 3.30 | < 3.30 | < 3.30 | < 3.30 | < 3.30 | < 3.30 | 
3 | CC(C)(C)NCCCNC(=O)c1cccc(Br)c1 [3-Bromo-N-(3-(tert-butylamino)propyl)benzamide (UNC2170, 1)] | < 3.30 | < 3.30 | < 3.30 | < 3.30 | < 3.30 | < 3.30 | < 3.30 | < 3.30 | 4.54 | 4.66

From BindingDB's records for doi:10.1021/cb500956g (University of North Carolina At Chapel Hill, 2015)
